Results as given in patent US8431140B2, “Topical compositions” (priority 2006, dated 2013).

Assays:
[1] = Flux of acyclovir gels with different drug concentrations (saturation flux comparison); assay type: in vitro ADME; conditions: in the vehicle of Table 10a
[2] = intravenous administration of 7.5-10 mg three times daily; cited from earlier work

For `Nc1nc2c(ncn2COCCO)c(=O)[nH]1` [acyclovir], the “Acyclovir concentration giving a saturated formulation post-evaporation” value [1] is listed as 0.06 % (w/w) and the “Serum concentrations of acyclovir” value [2] is listed as 5000 to 10000 ng/mL.
